In BindingDB's records for doi:10.7270/Q25719FH (Srmlsc, 2007):
pEC50: −log10 of the molar value.

Biological target: Multidrug resistance-associated protein 1 (Homo sapiens, UniProt P33527)
Assay: viability protection against doxorubicin, MRP-1 line – cell-based, doxorubicin EC50 shift, dose response (AID 844)

Chain of Multidrug resistance-associated protein 1 (P33527 whole entry): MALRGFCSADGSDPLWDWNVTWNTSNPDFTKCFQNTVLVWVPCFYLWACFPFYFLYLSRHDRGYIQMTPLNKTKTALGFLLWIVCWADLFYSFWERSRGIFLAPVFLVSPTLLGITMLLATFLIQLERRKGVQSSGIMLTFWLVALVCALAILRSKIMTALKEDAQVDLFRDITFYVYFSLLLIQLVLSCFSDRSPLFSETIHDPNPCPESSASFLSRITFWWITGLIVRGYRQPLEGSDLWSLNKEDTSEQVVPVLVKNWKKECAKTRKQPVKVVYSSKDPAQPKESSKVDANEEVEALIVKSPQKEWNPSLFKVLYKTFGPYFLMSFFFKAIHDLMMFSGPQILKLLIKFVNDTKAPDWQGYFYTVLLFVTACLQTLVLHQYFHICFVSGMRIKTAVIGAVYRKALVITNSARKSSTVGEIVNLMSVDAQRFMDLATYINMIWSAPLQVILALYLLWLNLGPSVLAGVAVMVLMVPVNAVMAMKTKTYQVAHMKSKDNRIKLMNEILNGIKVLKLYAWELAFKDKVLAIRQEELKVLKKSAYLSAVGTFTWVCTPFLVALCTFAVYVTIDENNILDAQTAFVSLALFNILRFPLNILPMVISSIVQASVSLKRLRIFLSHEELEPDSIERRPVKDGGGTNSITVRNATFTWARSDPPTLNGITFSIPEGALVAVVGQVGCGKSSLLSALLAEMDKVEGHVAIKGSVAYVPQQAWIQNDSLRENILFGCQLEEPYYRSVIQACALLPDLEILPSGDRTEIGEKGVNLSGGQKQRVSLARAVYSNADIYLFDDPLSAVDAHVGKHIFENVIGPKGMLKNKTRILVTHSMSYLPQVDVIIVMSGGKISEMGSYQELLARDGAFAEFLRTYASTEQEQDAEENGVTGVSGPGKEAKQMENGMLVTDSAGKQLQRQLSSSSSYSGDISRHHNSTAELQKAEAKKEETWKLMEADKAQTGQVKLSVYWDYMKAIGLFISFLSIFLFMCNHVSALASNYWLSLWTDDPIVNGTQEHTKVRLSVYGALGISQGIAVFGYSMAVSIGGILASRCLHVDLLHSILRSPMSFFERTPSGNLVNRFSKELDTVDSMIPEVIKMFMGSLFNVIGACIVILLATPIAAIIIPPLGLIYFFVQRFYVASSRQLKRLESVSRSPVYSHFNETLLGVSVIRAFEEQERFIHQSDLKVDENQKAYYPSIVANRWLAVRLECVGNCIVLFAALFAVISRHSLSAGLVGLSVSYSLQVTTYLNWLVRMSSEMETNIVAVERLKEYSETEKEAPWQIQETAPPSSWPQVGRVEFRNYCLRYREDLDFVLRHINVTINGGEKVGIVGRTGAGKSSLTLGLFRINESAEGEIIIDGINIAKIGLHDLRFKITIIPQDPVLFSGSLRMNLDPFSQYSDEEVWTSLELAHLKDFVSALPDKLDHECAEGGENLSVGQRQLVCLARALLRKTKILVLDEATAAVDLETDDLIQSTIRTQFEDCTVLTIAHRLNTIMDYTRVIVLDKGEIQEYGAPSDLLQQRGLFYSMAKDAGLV

SMILES | pEC50
COc1ccc(NC(=O)Cc2c(O)n(-c3ccc(Cl)cc3)c(=S)n2NC(=O)c2cccc(F)c2)cc1 [MLS000590171] | 5.44
O=C(O)c1cccc(-n2c(O)c3c(c2O)CC(Cl)=CC3)c1 [3-[5-chloranyl-1,3-bis(oxidanylidene)-3a,4,7,7a-tetrahydroisoindol-2-yl]benzoic acid] | 5.10
Oc1cc(N2CCN(c3nc4ccccc4s3)CC2)c(O)n1-c1ccc(F)cc1 [3-[4-(1,3-benzothiazol-2-yl)-1-piperazinyl]-1-(4-fluorophenyl)pyrrolidine-2,5-dione] | 5.19
COc1ccc(Cc2nnc(N=NCc3ccc(O)cc3O)[nH]c2=O)cc1OC | 6.08
COC(=O)C(C=Nc1ccc(O)cc1)[N+](=O)[O-] (stereo not given) [(Z)-3-(4-hydroxyanilino)-2-nitro-2-propenoic acid methyl ester] | 5.95
COC1(OC)C(O)CCC(N=O)C1N=O (stereo not given) [2,2-dimethoxy-3-nitroso-4-(oxidanylamino)cyclohex-3-en-1-ol] | 5.38
Cc1cc(N=NCc2ccc(O)cc2O)nc(-n2nc(C)cc2C)n1 [(4E)-4-[[2-[2-(3,5-dimethylpyrazol-1-yl)-6-methyl-pyrimidin-4-yl]hydrazinyl]methylidene]-3-oxidanyl-cyclohexa-2,5-dien-1-one] | > 6.71
COc1cccc(C2C(C(=O)Nc3nc4ccccc4s3)=C(C)N=C3CC(C)(C)CC(=O)C32)c1OC (stereo not given) [N-(1,3-benzothiazol-2-yl)-4-(2,3-dimethoxyphenyl)-2,7,7-trimethyl-5-oxo-1,4,6,8-tetrahydroquinoline-3-carboxamide] | 5.80
Oc1cc(N2CCC(O)(c3ccc(Br)cc3)CC2)c(O)n1-c1ccc(Cl)cc1 [3-[4-(4-bromophenyl)-4-hydroxy-1-piperidinyl]-1-(4-chlorophenyl)-2,5-pyrrolidinedione] | 5.13
COc1ccccc1C1C(C(=O)c2sc(C)nc2C)C(=O)C(=O)N1CCN1CCOCC1 (stereo not given) [3-(2,4-dimethyl-1,3-thiazole-5-carbonyl)-4-hydroxy-2-(2-methoxyphenyl)-1-(2-morpholin-4-ylethyl)-2H-pyrrol-5-one] | 5.42
O=C1/C(=C/c2nc3ccccc3[nH]2)SC(=S)N1c1ccc(F)cc1 [MLS000331487] | 5.47
O=C1Nc2ccc(F)cc2C12NC(Cc1ccc(O)cc1)c1c2c(O)n(-c2ccc(F)cc2)c1O [(3aR,6aS)-5'-fluoranyl-5-(4-fluorophenyl)-1-[(4-hydroxyphenyl)methyl]spiro[1,2,3a,6a-tetrahydropyrrolo[3,4-c]pyrrole-3,3'-1H-indole]-2',4,6-trione] | 5.12
Cc1ccccc1NC(=O)Cc1sc(=O)n(-c2ccccc2)c1O [2-(2,4-Dioxo-3-phenyl-thiazolidin-5-yl)-N-o-tolyl-acetamide] | 5.14
CC1=CC([N+](=O)[O-])=CC(C=NNC(=O)c2cc(C)n[nH]2)C1=O (stereo not given) [5-methyl-N'-[(E)-(5-methyl-3-nitro-6-oxo-1-cyclohexa-2,4-dienylidene)methyl]-1H-pyrazole-3-carbohydrazide] | 5.54
COc1ccc(NC(=O)Cc2c(O)n(-c3ccc(F)cc3)c(=S)n2NC(=O)c2ccccc2)cc1 [MLS000592105] | 5.37
C=CCc1c(C)nc(-c2ccccc2)nc1N=NC(C)c1ccccc1 (stereo not given) [(5-allyl-6-methyl-2-phenyl-pyrimidin-4-yl)-(1-phenylethylideneamino)amine] | 5.63
Oc1csc(=S)n1N=C1CCCCCC1 [SMR000212426] | 5.30
COc1cccc(C=Nn2c(O)csc2=S)c1O [3-[[(E)-(5-methoxy-6-oxidanylidene-cyclohexa-2,4-dien-1-ylidene)methyl]amino]-2-sulfanylidene-1,3-thiazolidin-4-one] | 5.15
O=c1[nH]c2ccccc2n1C1CCN(c2cc(O)n(-c3ccc(F)cc3)c2O)CC1 | 5.12
COc1ccc(CN2C(=O)C(=CNc3ccc(OC)cc3)c3ccccc3C2=O)cc1 [SMR000259567] | 5.14
C=C(C)C(=O)Nc1cc(=O)n(-c2ccccc2)[nH]1 [2-methyl-N-(5-oxo-1-phenyl-4H-pyrazol-3-yl)prop-2-enamide] | 5.25
COc1ccc(CN=Nc2cc(C)nc(-n3nc(C)cc3C)n2)cc1 [SMR000212741] | 6.18
Oc1cc(N2CCCN(c3cc(O)n(-c4ccc(F)cc4)c3O)CC2)c(O)n1-c1ccc(F)cc1 [1-(4-fluorophenyl)-3-[4-[1-(4-fluorophenyl)-2,5-bis(oxidanylidene)pyrrolidin-3-yl]-1,4-diazepan-1-yl]pyrrolidine-2,5-dione] | 5.20
Cc1cccc(Cc2sc(Nc3ccccn3)nc2O)c1 [5-(3-Methyl-benzyl)-2-(pyridin-2-ylimino)-thiazolidin-4-one] | 5.21
CCOC(=O)C1C(C)=Nc2sc(C(=O)c3ccc(OC)cc3)c(N)c2C1c1ccc(C(=O)OC)cc1 (stereo not given) [3-Amino-2-(4-methoxy-benzoyl)-4-(4-methoxycarbonyl-phenyl)-6-methyl-4,7-dihydro-thieno[2,3-b]pyridine-5-carboxylic acid ethyl ester] | 5.96

SMILES | pEC50
CCOC(=O)C1C(C)=Nc2sc(C(=O)c3ccc(C)cc3)c(N)c2C1c1ccc(C(=O)OC)cc1 (stereo not given) [3-Amino-4-(4-methoxycarbonyl-phenyl)-6-methyl-2-(4-methyl-benzoyl)-4,7-dihydro-thieno[2,3-b]pyridine-5-carboxylic acid ethyl ester] | 5.71
O=S(=O)(c1ccc(Cl)cc1Br)N1CCCCC1 [1-(2-bromanyl-4-chloranyl-phenyl)sulfonylpiperidine] | 5.27
COc1ccc(CN=Nc2nc(-c3ccc(Cl)cc3)cc(C(F)(F)F)n2)cc1OC [4-(4-chlorophenyl)-N-[(3,4-dimethoxyphenyl)methylideneamino]-6-(trifluoromethyl)-2-pyrimidinamine] | 5.72
Cc1cccc(NC(=O)Cc2sc(=O)n(-c3ccccc3)c2O)c1 [2-(2,4-Dioxo-3-phenyl-thiazolidin-5-yl)-N-m-tolyl-acetamide] | 5.29
O=C(CC=NNC(=O)c1ccccc1)c1ccc(Br)cc1 [MLS000532545] | 5.54
N#CC1C(=N)SC(=N)C(C#N)C1c1cccc(O)c1 (stereo not given) [2,6-Diamino-4-(3-hydroxy-phenyl)-4H-thiopyran-3,5-dicarbonitrile] | 5.24
C=CCc1c(C)nc(-c2ccccc2)nc1N=NCc1ccccc1 [6-methyl-2-phenyl-N-[(phenylmethylene)amino]-5-prop-2-enyl-4-pyrimidinamine] | 5.33
COc1ccc(N2C(=S)C(C#N)C(=O)NC2c2ccco2)cc1 (stereo not given) [2-(2-furanyl)-4-mercapto-3-(4-methoxyphenyl)-6-oxo-1,2-dihydropyrimidine-5-carbonitrile] | 5.66
Oc1cc(N2CCC(c3nc4ccccc4o3)CC2)c(O)n1-c1cc(Cl)cc(Cl)c1 [3-[4-(1,3-benzoxazol-2-yl)-1-piperidinyl]-1-(3,5-dichlorophenyl)-2,5-pyrrolidinedione] | 5.13
COc1ccc(-n2c(O)cc(N3CCC(O)(c4cccc(C(F)(F)F)c4)CC3)c2O)cc1 [1-(4-methoxyphenyl)-3-[4-oxidanyl-4-[3-(trifluoromethyl)phenyl]piperidin-1-yl]pyrrolidine-2,5-dione] | 5.32
O=C1C=CC([N+](=O)[O-])=CC1/C=N/n1cnc2ccccc21 (stereo not given) [2-[(E)-Benzoimidazol-1-yliminomethyl]-4-nitro-phenol] | 5.44
O=CC(=NNc1ccccc1)C(=O)c1ccncc1 [3-keto-2-(phenylhydrazono)-3-(4-pyridyl)propionaldehyde] | 5.12
O=C1Nc2ccccc2[C@@]12N[C@@H](Cc1ccc(O)cc1)c1c2c(O)n(-c2ccc(F)cc2)c1O [(1S,3R,3aR,6aS)-5-(4-fluorophenyl)-1-(4-hydroxybenzyl)spiro[1,2,3a,6a-tetrahydropyrrolo[3,4-c]pyrrole-3,3'-indoline]-2',4,6-trione] | 5.10
CCCCCCN1C(=O)C(=Cc2c[nH]nc2-c2ccccc2)SC1=S [(5Z)-3-hexyl-5-[(5-phenyl-1H-pyrazol-4-yl)methylidene]-2-sulfanylidene-1,3-thiazolidin-4-one] | 5.38
CCOC(=O)C1C(C)=Nc2ncnn2C1c1cccnc1 (stereo not given) | 5.35
O=C(CCCCl)Nc1cc(=O)n(-c2ccccc2)[nH]1 [4-Chloro-N-(5-oxo-1-phenyl-4,5-dihydro-1H-pyrazol-3-yl)-butyramide] | 5.07
Cc1ccc(C)c(C(=O)C2C(=O)C(=O)N(CCCn3ccnc3)C2c2ccncc2)c1 (stereo not given) [(4E)-4-[(2,5-dimethylphenyl)-hydroxy-methylene]-1-(3-imidazol-1-ylpropyl)-5-(4-pyridyl)pyrrolidine-2,3-quinone] | 5.20
O=C(O)c1ccc(N=NCc2ccc(F)c(F)c2)cc1 [4-[2-[(3,4-difluorophenyl)methylidene]hydrazinyl]benzoic acid;sulfuric acid] | 5.15
CC1CCN(S(=O)(=O)c2ccc(Br)s2)CC1 [1-(5-bromanylthiophen-2-yl)sulfonyl-4-methyl-piperidine] | 5.45
O=C1CCCC(=O)C1=NNc1ccc2c(c1)OCO2 [2-(1,3-benzodioxol-5-ylhydrazinylidene)cyclohexane-1,3-dione] | 5.20
N#Cc1ccc(-n2c(O)c3[nH][nH]c(C(=O)c4ccc5ccccc5n4)c-3c2=O)cc1 [4-[(3aS,6aS)-4,6-dioxo-3-[oxo(2-quinolinyl)methyl]-3a,6a-dihydro-1H-pyrrolo[3,4-c]pyrazol-5-yl]benzonitrile] | 5.15
Cc1cc(C)nc(N=NCc2cccc3ccccc23)n1 [(4,6-dimethylpyrimidin-2-yl)-(1-naphthylmethyleneamino)amine] | 5.27
COc1cccc(C=NNC(=O)c2[nH][nH]c(=O)c2C)c1O [N'-[(E)-(5-methoxy-6-oxidanylidene-cyclohexa-2,4-dien-1-ylidene)methyl]-4-methyl-5-oxidanylidene-1,4-dihydropyrazole-3-carbohydrazide] | 5.19
Cc1ccc(-n2[nH]c(C)c(C(c3ccccc3O)c3c(C)[nH]n(-c4ccc(C)cc4C)c3=O)c2=O)c(C)c1 | 5.42
O=C(Nc1nc(O)cs1)c1ccccc1 [MLS000106877] | 5.42
